These are literature values, as cited in patent publication US20160355464A1, “FUMARATE COMPOUNDS, PHARMACEUTICAL COMPOSITIONS THEREOF, AND METHODS OF USE” (priority 2015, published 2016).

SMILES strings stand for the structures.

`COC(=O)/C=C/C(=O)OC` [DMF, dimethylfumarate]: the aqueous solubility result is “poor aqueous solubility”.
